Measurements published in patent US20260374766A1, “METHODS FOR TREATING CANCER” (Antares Therapeutics, Inc., priority 2022, published 2026).
Like-named read-outs stand apart in the source and are kept apart here.

How the values were obtained:
p53 Y220C = p53 Y220C (Homo sapiens, UniProt P04637, Y220C); test: Luciferase Reporter Assay (Luc), p53 response element, NClH1299 cells with inducible p53 Y220C; type: cell-based; conditions: 6 hour; for AC50: read-out: Luc P53 Y220C AC50
Protocol: Luciferase Reporter Assay Protocol
The cells were then used for p53 reporter assay. 5,000 cells were seeded in each well of 384 plate and cultured in 0.5 ug/mL doxycycline (D3072; Sigma) containing medium for 24 hours before compound treatment. After 6 hour of compound treatment, equal volume of One-Glo reagent (E6110; Promega) was added to each well and the plate was incubated for 5 minutes with shaking at room temperature. The luciferase activity was immediately measured with PheraStar microplate reader.

H1299 p53 Y220C = test: Cell Proliferation Assay (CellTiter-Glo, CTG), H1299 p53 Y220C (NClH1299-inducible p53 Y220C); type: cell-based; conditions: Homo sapiens, NCI-H1299, 120 h, NClH1299-inducible p53 Y220C cells, 5 days
Protocol: (§1) Inducible p53 Y220C and R273H constructs (Tet-One inducible expression system; Takara) were stably expressed in NClH1299 cells by lentiviral transduction. NUGC3, A549, BxPC3, T3M4, HuH7, HCC2935, MFE296, NClH1299, NClH1299-inducible p53 Y220C, and NClH1299-inducible p53 R273H cell lines were used for cell proliferation assay. 250-500 cells were seeded in each well of 384 plate and then compounds were dispensed into each well using Echo or Tecan. After 5 days of incubation, equal volume of CellTiter-Glo reagent (G7570; Promega) was added into each well and the plate was incubated at room temperature for 10 minutes with shaking. The luminescent signal was measured by PheraStar microplate reader and IC50 was calculated.

[1] = molecular target: T1, p53 Y220C mutant protein (amino acid residues 94-293) (Homo sapiens, UniProt P04637, Y220C); test: Surface Plasmon Resonance (SPR) assay, Kd_kinetic; type: binding; conditions: SPR, p53 Y220C, read-out: SPR P53 Y220C KD kinetic
T1 construct: p53 Y220C mutant protein (amino acid residues 94-293)
Protocol: Surface Plasmon Resonance (SPR) Assay Protocol
SPR experiments were performed on a Biacore 8K instrument. […] The running buffer contained 50 mM Tris, pH 7.5, 100 mM NaCl, 1 mM DTT, 0.01% Brij35, 0.05% Tween-20 and 1% DMSO. The assay temperature was maintained at 16 or 20 °C and data were fit into the 1:1 binding model using the Biacore Insight Evaluation software.

H1299 p53 R273H = test: Cell Proliferation Assay (CellTiter-Glo, CTG), H1299 p53 R273H (NClH1299-inducible p53 R273H); type: cell-based; conditions: Homo sapiens, NCI-H1299, 120 h, CellTiter-Glo, 5 days
Protocol: as §1

NUGC3 p53 Y220C = test: Cell Proliferation Assay (CellTiter-Glo, CTG), NUGC3 p53 Y220C; type: cell-based; conditions: Homo sapiens, NUGC-3, 120 h, NUGC3 cells, 5 days, CellTiter-Glo
Protocol: as §1

[2] = Emax, luciferase reporter, NClH1299 inducible p53 Y220C
[3] = luciferase reporter, NClH1299 inducible p53 Y220C, 10 uM tool compound as positive control
[4] = luciferase reporter, NClH1299 inducible p53 Y220C
[5] = AC50, luciferase reporter, NClH1299 inducible p53 Y220C

T1 sequence (P04637 94-293, stated change not applied): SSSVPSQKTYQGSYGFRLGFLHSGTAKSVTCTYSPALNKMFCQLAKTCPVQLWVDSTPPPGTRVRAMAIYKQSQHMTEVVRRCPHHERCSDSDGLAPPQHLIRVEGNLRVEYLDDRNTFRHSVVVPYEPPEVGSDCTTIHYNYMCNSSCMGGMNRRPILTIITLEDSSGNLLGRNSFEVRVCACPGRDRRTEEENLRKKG

SMILES	Emax (p53 Y220C; [2]) [%]	IC50 (H1299 p53 Y220C; CellTiter-Glo) [nM]	Kd [1] [nM]	AC50 (p53 Y220C; [5]) [nM]	further results
CNC(=O)c1ccc(NCC#Cc2nc3c(N[C@@H]4C[C@@H]5COC[C@@H](N5)[C@@H]4F)cccn3c2SC(F)(F)F)c(OC)c1 (relative stereo) [Example 329]	80 to 90	< 750	–	–	–
[2H]C(C)(O)CNC(=O)c1ccc(NCC#Cc2cc3c(N[C@@H]4CCN(C)C[C@@H]4F)cccn3c2SC(F)(F)F)c(OC)c1 (single isomer, unassigned) [Example 487, 4-{[3-(8-{[(3S,4R)-3-fluoro-1-methylpiperidin-4-yl]amino}-3-[(trifluoromethyl)sulfanyl]indolizin-2-yl)prop-2-yn-1-yl]amino}-N-[(2R*)-2-hydroxy(2-^2H)propyl]-3-methoxybenzamide]	–	–	< 10	–	AC50 (p53 Y220C; AC50, NClH1299 cells with inducible p53 Y220C): < 750 nM; Emax (p53 Y220C; Emax, NClH1299 cells with inducible p53 Y220C, 10 uM tool compound as positive control): > 90%; IC50 (H1299 p53 Y220C): < 750 nM
CNC(=O)c1ccc(NCC#Cc2nc3c(N[C@@H]4CCN(C)C[C@@H]4F)cccn3c2C(F)(F)C(F)(F)F)c(OC)c1 [Example 30, 4-{[3-(8-{[(3S,4R)-3-fluoro-1-methylpiperidin-4-yl]amino}-3-(1,1,2,2,2-pentafluoroethyl)imidazo[1,2-a]pyridin-2-yl)prop-2-yn-1-yl]amino}-3-methoxy-N-methylbenzamide]	–	–	–	–	Kd ([1]; kinetic KD): 10 to 100 nM; Emax (p53 Y220C; [3]): > 90%; AC50 (p53 Y220C; [4]): > 3000 nM
COc1cc2c(cc1NCC#Cc1nc3c(N[C@@H]4CCN(C)C[C@@H]4F)cccn3c1CC(F)(F)F)CNC2=O [Example 95, 5-{[3-(8-{[(3S,4R)-3-fluoro-1-methylpiperidin-4-yl]amino}-3-(2,2,2-trifluoroethyl)imidazo[1,2-a]pyridin-2-yl)prop-2-yn-1-yl]amino}-6-methoxy-2,3-dihydroisoindol-1-one]	–	–	–	–	Kd ([1]; kinetic KD): < 10 nM
COc1ccc(C(=O)N(C)C)cc1NCC#Cc1nc2c(N[C@@H]3CCN(C)C[C@@H]3F)cccn2c1SC(F)(F)F [Example 143]	–	–	–	–	Kd ([1]; kinetic KD): < 10 nM; Emax (p53 Y220C; [3]): > 90%; AC50 (p53 Y220C; [4]): < 750 nM; IC50 (H1299 p53 R273H; H1299 p53 R273H): 5000 to 8000 nM
CNC(=O)c1cnc(OC)c(NCC#Cc2nc3c(N[C@@H]4CCN(C)C[C@@H]4F)cccn3c2SC(F)(F)F)n1 [Example 157]	–	–	–	–	Kd ([1]; kinetic KD): < 10 nM; Emax (p53 Y220C; [3]): 80 to 90%; AC50 (p53 Y220C; [4]): < 750 nM; IC50 (H1299 p53 R273H; H1299 p53 R273H): ≥ 10000 nM
COc1cc(C(=O)NCC2CN(C)C2)ccc1NCC#Cc1nc2c(N[C@@H]3CCOC[C@@H]3F)cccn2c1SC(F)(F)F [Example 227]	70 to 80	> 3000	< 10	> 3000	–
CNC(=O)c1ccc(OCCN(C)C)c(NCC#Cc2nc3c(N[C@@H]4CCOC[C@@H]4F)cccn3c2SC(F)(F)F)c1 [Example 229]	70 to 80	750 to 1500	< 10	750 to 1500	–
CNC(=O)c1cc(NCC#Cc2nn3c(N[C@@H]4CCN(C)C[C@@H]4F)cccc3c2SC(F)(F)F)c(OC)cn1 [Example 271]	80 to 90	< 750	< 10	< 750	–
CNC(=O)c1ccc(NCC#Cc2nc3c(N[C@H]4C[C@H]5COC[C@H](N5)[C@H]4F)cccn3c2SC(F)(F)F)c(OC)c1 [Example 281]	80 to 90	1500 to 3000	–	–	–
CNC(=O)c1ccc(NCC#Cc2nc3c(N[C@H]4C[C@H]5COC[C@H](N5)[C@H]4F)cccn3c2SC(F)(F)F)c(OC)c1 [Example 282]	–	–	–	–	IC50 (NUGC3 p53 Y220C): < 750 nM; IC50 (H1299 p53 R273H; NClH1299-inducible p53 R273H cells): ≥ 10000 nM
CNC(=O)c1cc(NCC#Cc2cc3c(N[C@@H]4CCN(C)C[C@@H]4F)cccn3c2SC(F)(F)F)n2ncnc2c1 [Example 361]	< 70	> 3000	–	> 3000	–
COc1cc(S(C)(=N)=O)ccc1NCC#Cc1cc2c(N[C@@H]3CCN(C)C[C@@H]3F)cccn2c1SC(F)(F)F (some centres unmarked) [Example 374]	80 to 90	< 750	< 10	< 750	–
CNC(=O)c1ccc(NCC#Cc2cc3c(N[C@@H]4CCN(C)C[C@@H]4F)cccn3c2SC(F)(F)F)c(O[C@H]2C[C@H](O)C2)c1 [Example 398]	80 to 90	–	< 10	< 750	–
